From PMC6036970, “Natural and redesigned wasp venom peptides with selective antitumoral activity” (Beilstein Journal of Organic Chemistry, 2018)
pIC50: −log10 of the molar value. Where no end group is shown, it is not given here.

Assays:
[1] = tested on: MCF-7 breast cancer cells; test: MTT cytotoxicity assay on MCF-7 cancer cells; type: cell-based; conditions: for pIC50 / IC50 against MCF-7: MCF-7, 24 h, read at 570 nm; for pIC50 / IC50 against MCF-7 / LD50 / concentration achieving >50% of cancer cell lysis: MTT, triplicate; for pIC50: read-out: IC50 against MCF-7; for effect on cell viability 2 h post-exposure: after 2 h; for inhibition of cell viability: 50 μmol L^−1 after 2 h; for inhibition of cancer cell growth: dose of ≈50 μmol L^−1; for LD50 / concentration achieving >50% of cancer cell lysis: MCF-7, after 24 h
Experimental: (§1) MCF-7 cells (ATCC) were maintained in RPMI 1640 medium supplemented with 10% heat inactivated FBS and 100 μg mL^−1 penicillin/10 μg mL^−1 streptomycin. One day before the assays, the cells were plated in 96-well microtiter plates with a density of 2.0 × 10^4 cells/well at 37 °C and 5% CO2. On the next day, cells were treated with peptides serial dilutions (0.09–50 μmol L^–1), incubated in individual microtiter plates for 2 and 24 h and MTT assays were performed after treatment. Human breast epithelial cells MCF-10A (ATCC) were maintained in a mixture of Dulbecco’s Modified Eagle’s Medium and Ham’s F12 nutrient mixture supplemented with 5% inactivated horse serum, 10 μg mL^−1 insulin, 0.02 μg mL^−1 human epidermal growth factor, 0.5 μg mL^−1 hydrocortisone, 0.10 μg mL^−1 choleric toxin, 100 U mL^−1 penicillin, and 100 μg mL^−1 streptomycin. The cells were preincubated for 24 h, plated in 96-well microtiter plates with a density of 2.0 × 10^4 cells/well at 37 °C and 5% CO2. On the next day, cells were treated with peptides serial dilutions (25 to 100 μmol L^−1), incubated in individual microtiter plates for 4 and 24 h and MTT assay was performed after treatment. Experiments were performed in triplicate.
(§2) Briefly, MTT (Sigma-Aldrich) was dissolved in water and filtered to make up a […] solution. 30 μL of this solution were added to all the wells which already contained peptide-treated cells and kept at 37 °C for 45 minutes. Subsequently, the solution was discarded and replaced with 150 μL/well of DMSO and followed by gentle shaking for 15 minutes. Finally, the microplates were read on an ELISA reader at 570 nm. Experiments were performed in triplicate.

human red blood cells = conditions: ref Torres et al. [9]–[10]; cited from earlier work
From the text: Table 1 Theoretical physicochemical properties and hemolytic activity of decoralin and its synthetic analogs.^a

MCF-10A normal cells = test: MTT cytotoxicity assay on MCF-10A normal cells; type: cell-based, human; conditions: for cytotoxicity against MCF-10A normal cells: up to higher concentrations (≈100 μmol L^−1)
Experimental: as §1, §2

MCF-7 cells = test: AFM measurement of cell membrane roughness; type: cell-based; conditions: MCF-7, 50 μmol L^−1, 24 h, AFM contact mode, Ra and Rq
Experimental: The AFM imaging of MCF-7 cells untreated (control) and treated with peptide (50 μmol L^−1 solutions of Dec-NH2 and [Leu]^8-Dec-NH2, which presented low activity when compared to other analogs and was used here as a treated control) was performed using an Agilent Technologies 5500 AFM/SPM microscope that was in contact mode and a Nanosensors™ PPP-CONT probe (NanoSensors; PPP-Cont-20, PointProbe-Plus Silicon-SPM-Sensor). The material properties and dimensions of the AFM tips used in this experiment were as follows: resonance frequency of 6–21 kHz, force constant of 0.02–0.77 N m^−1, cantilever length of 450 ± 10 μm, cantilever width of 50 ± 7.5 μm, cantilever thickness of 2 ± 1 μm, tip height of 10–15 μm and resistivity of 0.01–0.02 Ω cm. The assays were performed in triplicate; image processing and roughness determinations were performed with the aid of the Gwyddion software (http://gwyddion.net/download.php). In order to compare the cell surface, we used two roughness parameters, the mean roughness (Ra) and the mean square of Z data (Rq), where N is the difference between the highest and the lowest points in the analyzed area. […]
The root mean square of the Z values Rq is the standard deviation of the N values in the area analyzed and is given by Equation 2: […]

[2] = tested on: Gram-positive bacteria, Gram-negative bacteria, and fungi; conditions: ref Torres et al. [9]; cited from earlier work

Substance | pIC50 [1] | MHC (maximal non-hemolytic concentration) (human red blood cells) [µmol/L] | IC50 against MCF-7 [1] [µM] | inhibition of cancer cell growth ([1]; MCF-7, MTT) | further results
SLLSLIRKLIW-NH2 [[Trp]^11-Dec-NH2] | 4.60 | 1.56 |  |  | 
SLLSLIRLLIT-NH2 [[Leu]^8-Dec-NH2] | < 4.30 | 50.00 |  |  | activity against MCF-7 cells compared to the negative control ([1]; MCF-7, MTT): did not present significant activity; cytotoxicity towards normal MCF-10A cells (MCF-10A normal cells; lowest concentration tested (25 μmol L^−1)): cytotoxic; change of membrane roughness (MCF-7 cells): did not significantly change membrane roughness; antimicrobial activity (order of magnitude) [2]: ~10^1 μmol L^−1
SLLSLFRKLIT-NH2 [[Phe]^6-Dec-NH2] | < 4.30 | 3.12 |  |  | effect on cell viability 2 h post-exposure ([1]; MCF-7, MTT): did not show significant inhibition
SLLSLFRKLI-NH2 [[Phe]^6-Des[Thr]^11-Dec-NH2, synthetic analog of Dec-NH2] |  | 12.50 | 50.0 | substantial inhibition | inhibition of cell viability ([1]; MCF-7, MTT): inhibited cell viability the most
SFLSLIRKLIT-NH2 [[Phe]^2-Dec-NH2, synthetic analog of Dec-NH2] |  | 3.12 | 50.0 | substantial inhibition | inhibition of cell viability ([1]; MCF-7, MTT): inhibited cell viability the most
SLLSLIRKLLT-NH2 [[Leu]^10-Dec-NH2] | 4.90 | 25.00 |  |  | LD50 / concentration achieving >50% of cancer cell lysis [1]: 12.5 µmol/L; cytotoxicity against MCF-10A normal cells (MCF-10A normal cells): no significant cytotoxicity
SLLPLIRKLIT-NH2 [[Pro]^4-Dec-NH2] | 4.60 | 12.50 |  |  | 
SLLSLIRKLIT-NH2 [Dec-NH2] | 4.90 | 1.56 |  |  | LD50 / concentration achieving >50% of cancer cell lysis [1]: 12.5 µmol/L; cytotoxicity against MCF-10A normal cells (MCF-10A normal cells): no significant cytotoxicity
RLLSLIRKLIT-NH2 [[Arg]^1-Dec-NH2, synthetic analog of Dec-NH2] |  | 25.00 | 50.0 | substantial inhibition | effect on cell viability 2 h post-exposure ([1]; MCF-7, MTT): significant decreased cell viability
